Results on 30 molecules are retold here after US8846698B2, “Pyrrolo[2,3-d]pyrimidine tropomysin-related kinase inhibitors” (Pfizer Limited, priority 2011, dated 2014).

Structures are written as SMILES.

As usually defined, the IC50 is the midpoint of a concentration-inhibition curve.

For this assay, the target named is TRKA (Homo sapiens (Human), UniProt P04629). In words: Isolated TRK enzyme assay (HTRF KinEASE-TK), TRKA. The format is biochemical. As to conditions: read-out: Trka enzyme (IC50). A general note: In TR-FRET formats the signal depends on donor and acceptor labels being close together.
TRKA, sequence (P04629 441-796): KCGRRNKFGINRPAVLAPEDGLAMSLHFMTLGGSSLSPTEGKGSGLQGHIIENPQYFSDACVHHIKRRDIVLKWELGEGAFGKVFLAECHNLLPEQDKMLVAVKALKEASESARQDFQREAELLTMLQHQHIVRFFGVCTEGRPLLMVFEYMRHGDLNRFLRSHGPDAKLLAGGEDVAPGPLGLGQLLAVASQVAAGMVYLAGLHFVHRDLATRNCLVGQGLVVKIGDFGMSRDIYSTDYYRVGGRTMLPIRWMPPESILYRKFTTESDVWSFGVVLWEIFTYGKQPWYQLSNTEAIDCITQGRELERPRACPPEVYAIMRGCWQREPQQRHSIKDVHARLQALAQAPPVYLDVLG
With `C[C@H](CO)n1cc(C(=O)c2cncc(NC(=O)Cc3cccc(C(F)(F)F)c3)c2)c2cncnc21` [Example 205, N-[5-({7-[(1R)-2-hydroxy-1-methylethyl]-7H-pyrrolo[2,3-d]pyrimidin-5-yl}carbonyl)pyridin-3-yl]-2-[3-(trifluoromethyl)phenyl]acetamide], the IC50 is 0.0122 µM.
As for `CC(C)c1cn(CC(=O)Nc2cncc(C(=O)c3cn([C@H](C)CO)c4ncncc34)c2)nn1` [Example 206, N-[5-({7-[(1R)-2-hydroxy-1-methylethyl]-7H-pyrrolo[2,3-d]pyrimidin-5-yl}carbonyl)pyridin-3-yl]-2-(4-isopropyl-1H-1,2,3-triazol-1-yl)acetamide], the IC50 amounted to 0.123 µM.
With `CC(C)n1ncc(CC(=O)Nc2cncc(C(=O)c3cn([C@H](C)CO)c4ncncc34)c2)c1C(F)(F)F` [Example 207, N-[5-({7-[(1R)-2-hydroxy-1-methylethyl]-7H-pyrrolo[2,3-d]pyrimidin-5-yl}carbonyl)pyridin-3-yl]-2-[1-isopropyl-5-(trifluoromethyl)-1H-pyrazol-4-yl]acetamide], the IC50 was 0.11 µM.
Under `C[C@H](CO)n1cc(C(=O)c2cncc(NC(=O)Cc3ccc(C#N)cc3)c2)c2cncnc21` [Example 208, 2-(4-cyanophenyl)-N-[5-({7-[(1R)-2-hydroxy-1-methylethyl]-7H-pyrrolo[2,3-d]pyrimidin-5-yl}carbonyl)pyridin-3-yl]acetamide] stands 0.129 µM.
For the molecule `C[C@H](CO)n1cc(C(=O)c2cncc(NC(=O)Cc3cccc(S(C)(=O)=O)c3)c2)c2cncnc21` [Example 209, N-[5-({7-[(1R)-2-hydroxy-1-methylethyl]-7H-pyrrolo[2,3-d]pyrimidin-5-yl}carbonyl)pyridin-3-yl]-2-[3-(methylsulfonyl)phenyl]acetamide], the IC50 turned out to be 0.272 µM.
Consider `C[C@H](CO)n1cc(C(=O)c2cncc(NC(=O)Cc3ccc4cccnc4c3)c2)c2cncnc21` [Example 210, N-[5-({7-[(1R)-2-hydroxy-1-methylethyl]-7H-pyrrolo[2,3-d]pyrimidin-5-yl}carbonyl)pyridin-3-yl]-2-quinolin-7-ylacetamide], for which the IC50 came out at 0.185 µM.
For `O=C(Cc1ccc(Cl)c(Cl)c1)Nc1cncc(C(=O)c2cn(C3COC3)c3ncncc23)c1` [Example 217, 2-(3,4-dichlorophenyl)-N-{5-[(7-oxetan-3-yl-7H-pyrrolo[2,3-d]pyrimidin-5-yl)carbonyl]pyridin-3-yl}acetamide] the value was 0.0833 µM; for `N#Cc1ccc(CC(=O)Nc2cncc(C(=O)c3cn(C4COC4)c4ncncc34)c2)cc1` [Example 218, 2-(4-cyanophenyl)-N-{5-[(7-oxetan-3-yl-7H-pyrrolo[2,3-d]pyrimidin-5-yl)carbonyl]pyridin-3-yl}acetamide], 1.21 µM; for `O=C(Cc1ccc(Cl)cc1)Nc1cncc(C(=O)c2cn(C3COC3)c3ncncc23)c1` [Example 219, 2-(4-chlorophenyl)-N-{5-[(7-oxetan-3-yl-7H-pyrrolo[2,3-d]pyrimidin-5-yl)carbonyl]pyridin-3-yl}acetamide], 0.286 µM.
For the molecule `O=C(Cc1cccc(Cl)c1)Nc1cncc(C(=O)c2cn(C3COC3)c3ncncc23)c1` [Example 220, 2-(3-chlorophenyl)-N-{5-[(7-oxetan-3-yl-7H-pyrrolo[2,3-d]pyrimidin-5-yl)carbonyl]pyridin-3-yl}acetamide], the IC50 turned out to be 0.462 µM.
Take `N#Cc1cccc(CC(=O)Nc2cncc(C(=O)c3cn(C4COC4)c4ncncc34)c2)c1` [Example 221, 2-(3-cyanophenyl)-N-{5-[(7-oxetan-3-yl-7H-pyrrolo[2,3-d]pyrimidin-5-yl)carbonyl]pyridin-3-yl}acetamide]: the half-maximal inhibitory concentration (IC50) came out at 3.1 µM.
Under `O=C(Cc1ccc2cccnc2c1)Nc1cncc(C(=O)c2cn(C3COC3)c3ncncc23)c1` [Example 222, N-{5-[(7-oxetan-3-yl-7H-pyrrolo[2,3-d]pyrimidin-5-yl)carbonyl]pyridin-3-yl}-2-quinolin-7-ylacetamide] stands 0.692 µM; under `O=C(Cc1cn2cc(Cl)ccc2n1)Nc1cncc(C(=O)c2cn(C3COC3)c3ncncc23)c1` [Example 223, 2-(6-chloroimidazo[1,2-a]pyridin-2-yl)-N-{5-[(7-oxetan-3-yl-7H-pyrrolo[2,3-d]pyrimidin-5-yl)carbonyl]pyridin-3-yl}acetamide], 1.66 µM; under `O=C(CN1Cc2ccccc2C1=O)Nc1cncc(C(=O)c2cn(C3COC3)c3ncncc23)c1` [Example 224, N-{5-[(7-oxetan-3-yl-7H-pyrrolo[2,3-d]pyrimidin-5-yl)carbonyl]pyridin-3-yl}-2-(1-oxo-1,3-dihydro-2H-isoindol-2-yl)acetamide], 3.1 µM.
Take `CC(C)(CO)n1cc(C(=O)c2cncc(NC(=O)Cc3ccc(C#N)cc3)c2)c2cncnc21` [Example 225, 2-(4-cyanophenyl)-N-(5-{[7-(2-hydroxy-1,1-dimethylethyl)-7H-pyrrolo[2,3-d]pyrimidin-5-yl]carbonyl}pyridin-3-yl)acetamide]: the IC50 turned out to be 0.0277 µM.
For `CC(C)(CO)n1cc(C(=O)c2cncc(NC(=O)Cc3cccc(C(F)(F)F)c3)c2)c2cncnc21` [Example 226, N-(5-{[7-(2-hydroxy-1,1-dimethylethyl)-7H-pyrrolo[2,3-d]pyrimidin-5-yl]carbonyl}pyridin-3-yl)-2-[3-(trifluoromethyl)phenyl]acetamide] the value was 0.00361 µM; for `CC(C)c1cn(CC(=O)Nc2cncc(C(=O)c3cn(C(C)(C)CO)c4ncncc34)c2)nn1` [Example 227, N-(5-{[7-(2-hydroxy-1,1-dimethylethyl)-7H-pyrrolo[2,3-d]pyrimidin-5-yl]carbonyl}pyridin-3-yl)-2-(4-isopropyl-1H-1,2,3-triazol-1-yl)acetamide], 0.0125 µM; for `CC(C)(CO)n1cc(C(=O)c2cncc(NC(=O)Cc3ccc4cccnc4c3)c2)c2cncnc21` [Example 228, N-(5-{[7-(2-hydroxy-1,1-dimethylethyl)-7H-pyrrolo[2,3-d]pyrimidin-5-yl]carbonyl}pyridin-3-yl)-2-quinolin-7-ylacetamide], 0.0149 µM.
Under `CC(CO)(CO)n1cc(C(=O)c2cncc(NC(=O)Cc3ccc(C#N)cc3)c2)c2cncnc21` [Example 232, 2-(4-Cyanophenyl)-N-[5-({7-[2-hydroxy-1-(hydroxymethyl)-1-methylethyl]-7H-pyrrolo[2,3-d]pyrimidin-5-yl}carbonyl)pyridin-3-yl]acetamide] stands 0.274 µM.
Under `CC(CO)(CO)n1cc(C(=O)c2cncc(NC(=O)Cc3ccc4cccnc4c3)c2)c2cncnc21` [Example 233, N-[5-({7-[2-hydroxy-1-(hydroxymethyl)-1-methylethyl]-7H-pyrrolo[2,3-d]pyrimidin-5-yl}carbonyl)pyridin-3-yl]-2-quinolin-7-ylacetamide] stands 0.0965 µM; under `Cc1cc(C(F)(F)F)nn1CC(=O)Nc1cncc(C(=O)c2cn(C(C)(CO)CO)c3ncncc23)c1` [Example 234, N-[5-({7-[2-hydroxy-1-(hydroxymethyl)-1-methylethyl]-7H-pyrrolo[2,3-d]pyrimidin-5-yl}carbonyl)pyridin-3-yl]-2-[5-methyl-3-(trifluoromethyl)-1H-pyrazol-1-yl]acetamide], 0.0849 µM.
In the case of `CC(CO)(CO)n1cc(C(=O)c2cncc(NC(=O)Cc3ccc(Cl)cc3)c2)c2cncnc21` [Example 235, 2-(4-chlorophenyl)-N-[5-({7-[2-hydroxy-1-(hydroxymethyl)-1-methylethyl]-7H-pyrrolo[2,3-d]pyrimidin-5-yl}carbonyl)pyridin-3-yl]acetamide], the IC50 is 0.0705 µM.
On to `CC(CO)(CO)n1cc(C(=O)c2cncc(NC(=O)Cc3ccc(C(F)(F)F)cc3)c2)c2cncnc21` [Example 236, N-[5-({7-[2-hydroxy-1-(hydroxymethyl)-1-methylethyl]-7H-pyrrolo[2,3-d]pyrimidin-5-yl}carbonyl)pyridin-3-yl]-2-[4-(trifluoromethyl)phenyl]acetamide], for which the IC50 stood at 0.0252 µM.
`CC(CO)(CO)n1cc(C(=O)c2cncc(NC(=O)Cc3ccc(Cl)cn3)c2)c2cncnc21` [Example 237, 2-(5-chloropyridin-2-yl)-N-[5-({7-[2-hydroxy-1-(hydroxymethyl)-1-methylethyl]-7H-pyrrolo[2,3-d]pyrimidin-5-yl}carbonyl)pyridin-3-yl]acetamide]: the IC50 turned out to be 0.0739 µM.
Under `CC(CO)(CO)n1cc(C(=O)c2cncc(NC(=O)Cc3cccc(C(F)(F)F)c3)c2)c2cncnc21` [Example 238, N-[5-({7-[2-hydroxy-1-(hydroxymethyl)-1-methylethyl]-7H-pyrrolo[2,3-d]pyrimidin-5-yl}carbonyl)pyridin-3-yl]-2-[3-(trifluoromethyl)phenyl]acetamide] stands 0.00936 µM; under `CC(CO)(CO)n1cc(C(=O)c2cncc(NC(=O)Cn3ccc(C(F)(F)F)n3)c2)c2cncnc21` [Example 239, N-[5-({7-[2-hydroxy-1-(hydroxymethyl)-1-methylethyl]-7H-pyrrolo[2,3-d]pyrimidin-5-yl}carbonyl)pyridin-3-yl]-2-[3-(trifluoromethyl)-1H-pyrazol-1-yl]acetamide], 0.0226 µM; under `CC(C)n1cc(C(=O)c2cncc(NC(=O)Cn3cc(C(F)(F)F)nn3)c2)c2cnc(N)nc21` [Example 240, N-{5-[(2-amino-7-isopropyl-7H-pyrrolo[2,3-d]pyrimidin-5-yl)carbonyl]pyridin-3-yl}-2-[4-(trifluoromethyl)-1H-1,2,3-triazol-1-yl]acetamide], 0.0192 µM.
For the molecule `CC(C)n1cc(C(=O)c2cncc(NC(=O)Cc3ccc(C#N)cc3)c2)c2cnc(N)nc21` [Example 241, N-{5-[(2-amino-7-isopropyl-7H-pyrrolo[2,3-d]pyrimidin-5-yl)carbonyl]pyridin-3-yl}-2-(4-cyanophenyl)acetamide], the IC50 turned out to be 0.0453 µM.
Regarding `CC(C)n1cc(C(=O)c2cncc(NC(=O)Cc3ccc(Cl)cn3)c2)c2cnc(N)nc21` [Example 242, N-{5-[(2-amino-7-isopropyl-7H-pyrrolo[2,3-d]pyrimidin-5-yl)carbonyl]pyridin-3-yl}-2-(5-chloropyridin-2-yl)acetamide], the IC50 was 0.00871 µM.
With `CC(C)n1cc(C(=O)c2cncc(NC(=O)Cc3ccc(F)cn3)c2)c2cnc(N)nc21` [Example 243, N-{5-[(2-amino-7-isopropyl-7H-pyrrolo[2,3-d]pyrimidin-5-yl)carbonyl]pyridin-3-yl}-2-(5-fluoropyridin-2-yl)acetamide], the IC50 was determined as 0.0384 µM.
